{"source": "patent US8906936B2", "about": "“Pharmaceutical combination comprising co-administration of taxane and N-(1-cyclohexyl-2-{2-[4-(4-fluoro-benzoyl)-thiazol-2-yl]-pyrrolidin-1-yl}-2-oxo-ethyl)-2-methylamino-propionamide or pharmaceutically acceptable salt(s) thereof” (Novartis AG, priority 2005, dated 2014)", "key": {"BIR3 domain of CIAP1": {"biological_target": "BIR3 domain of CIAP1 (Homo sapiens, UniProt Q13490)", "sequence (Q13490 253-363 limits assumed)": "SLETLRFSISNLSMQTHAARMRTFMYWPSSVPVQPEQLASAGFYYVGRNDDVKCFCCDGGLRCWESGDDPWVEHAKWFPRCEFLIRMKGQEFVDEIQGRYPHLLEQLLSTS", "assay": "affinity for BIR3 domain of CIAP1", "format": "binding"}, "[1]": {"tested_on": "tumor cell lines representing lung, ovarian, melanoma, pancreatic cancers", "assay": "72 hr MTS assay, panels of tumor cell lines (lung, ovarian, melanoma, pancreatic)", "experimental": "To determine whether the spectrum of tumor cell lines which responded to these agents would be wider in combination with the cytotoxic drug Taxol, we subject panels of tumor cell lines representing a number of human cancers to in vitro combination analyses.\nMTS Reagent (#G1111; Promega) in PBS, pH 6-6.5. […] Tumor Cell Lines are purchased from ATCC.\nCell proliferation/cell death is analyzed in 72 hr. […] Tumor cell lines are plated at subconfluent densities in 96 well plate format and allowed to adhere for 12-16 hr. Cpds are then added according to the following schemes: i.\nChemotherapeutic agents or cytotoxic cpds (Ctx) are added alone, in an 8-point/10-fold titration scheme from high to low dose, in triplicate. ii. […] Once all dosing is completed, cells are cultured for a further 72 hr. and then assayed using the MTS format:\nPlate cells in RPMI/10% FBS Complete medium. […]\nAdd MTS/PMS reagents to T.0 Plate(s). […] Read OD 490 nm using SoftMax Pro software on a Molecular Devices (Sunnyvale, Calif.) Spectrophotometer. Calculate T.0 values for each cell line to be assayed by generating the mean value of the OD 490 nm readings from each cell line's T.0 wells (6/cell line) and subtracting the mean OD 490 nm values from Blank wells. […]\nAdd 20 ul mixture to ea. well & incubate plate(s) 2 hr. @ 37° C./5% CO2. Read OD 490 nm using SoftMax Pro software on a Molecular Devices Spectrophotometer. […]"}, "MDA231": {"tested_on": "MDA231", "assay": "72 hr MTS assay, LBW242 with or without Taxol, MDA231", "format": "cell-based, human", "from_the_text": "(§1) 1. […] MTS Data is generated as described below:\n(§2) Selection of IAP Inhibitor Dose Levels"}, "SKOV3": {"tested_on": "SKOV3", "assay": "72 hr MTS assay, LBW242 with or without Taxol, SKOV3", "format": "cell-based, human", "from_the_text": "as §1, §2"}, "BIR3 domain of XIAP": {"biological_target": "BIR3 domain of XIAP (Homo sapiens, UniProt P98170)", "sequence (P98170 241-356 limits assumed)": "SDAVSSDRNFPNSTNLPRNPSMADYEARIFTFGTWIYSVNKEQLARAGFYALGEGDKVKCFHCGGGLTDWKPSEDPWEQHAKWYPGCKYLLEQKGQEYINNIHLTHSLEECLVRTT", "assay": "affinity for BIR3 domain of XIAP", "format": "binding"}, "melanoma cell line A375": {"tested_on": "melanoma cell line A375", "assay": "three day proliferation assay in A375", "format": "cell-based", "description": "Bottom two curves show Taxol dose response in presence of either 6 μM or 12 μM compound of formula (III)."}, "[2]": {"tested_on": "ovarian carcinoma line SKOV3", "assay": "anti-proliferative activity of combination with Docetaxel in SKOV3 in vitro", "format": "cell-based", "conditions": "across a dose range", "from_the_text": "FIG. 1 indicates anti-proliferative activity of compound of formula (III) alone (bottom row), Docetaxel alone (most leftward column) and combinations of the two agents across a dose range. FIG. 2 is the corresponding isobologram at 70% growth inhibition."}, "[3]": {"tested_on": "orthotopic breast cancer model MDA-MB-231", "assay": "orthotopic breast cancer model MDA-MB-231, anti-tumor activity", "format": "in vivo", "conditions": "in combination with Paclitaxel; established tumors treated for two weeks; compared to either single agent"}, "[4]": {"conditions": "criterion: minimum five fold potency shift of Taxol IC50 relative to Taxol alone"}}}
{"smiles": "CN[C@@H](C)C(=O)N[C@H](C(=O)N1CC[C@H]2CCN(CCc3ccccc3)C[C@H]21)C1CCCCC1", "note": "[LBW242]", "values": [{"measurement": "affinity", "setting": "BIR3 domain of CIAP1", "result": "nM affinity"}, {"measurement": "range of tumor cell lines sensitive in combination with a cytotoxic agent versus as a single agent", "setting": "[1]; in combination with Taxol", "result": "slightly larger"}, {"measurement": "single agent activity across tumor cell lines", "setting": "[1]; single agent, in vitro", "result": "single agent activity on a limited number of tumor cell lines"}, {"measurement": "combination activity with Taxol", "setting": "MDA231; [4]", "result": "exhibit combination activity"}, {"measurement": "response to monotherapy", "setting": "MDA231; single agent", "result": "responsive"}, {"measurement": "combination activity with Taxol", "setting": "SKOV3; [4]", "result": "exhibit combination activity"}, {"measurement": "response to monotherapy", "setting": "SKOV3; single agent", "result": "responsive"}]}
{"smiles": "CN[C@@H](C)C(=O)N[C@H](C(=O)N1CCC[C@H]1c1nc(C(=O)c2ccc(F)cc2)cs1)C1CCCCC1", "note": "[LCL161]", "values": [{"measurement": "affinity", "setting": "BIR3 domain of XIAP", "result": "nM affinity"}]}
{"smiles": "CN[C@@H](C)C(=O)N[C@H](C(=O)N1CC[C@H]2CCN(CCc3ccccc3)C[C@H]21)C1CCCCC1", "note": "[compound of formula (III)]", "values": [{"measurement": "anti-proliferative activity of Taxol in combination", "setting": "melanoma cell line A375; Taxol dose response in presence of 6 μM or 12 μM compound of formula (III), A375, three day", "result": "dramatically enhanced"}, {"measurement": "stand alone activity", "setting": "melanoma cell line A375; single agent, A375 (data not shown)", "result": "no stand alone activity"}, {"measurement": "interaction of the combination with Docetaxel (anti-proliferative activity)", "setting": "[2]", "result": "significant synergy"}, {"measurement": "anti-tumor activity of the combination with Paclitaxel", "setting": "[3]", "result": "superior anti-tumor activity compared to either agent administered as a single agent"}]}
